Laboratory results as given in ChEMBL document CHEMBL1201862, “PubChem BioAssay data set” (2004).
The source made the active and inactive calls.

Experiments:
[1] = molecular target: Luciferin 4-monooxygenase (Photinus pyralis, UniProt P08659); assay: firefly luciferase enzyme inhibitors, dose response, biochemical, luminescence (AID 1891)
[2] = Luminescence Cell-Based Dose Confirmation HTS to Identify Inhibitors of Platelet Dense Granule Release. [Related pubchem assays: 1663 (Primary HTS), 1678 (Summary of Project)]; format: functional
[3] = molecular target: Dual specificity tyrosine-phosphorylation-regulated kinase 1A (Rattus norvegicus, UniProt Q63470); format: biochemical, Homo sapiens
[4] = cells; format: functional, cell-based
[5] = molecular target: T1, Trace amine-associated receptor 1 (Homo sapiens, UniProt Q96RJ0); assay: Fluorescence-based cell-based high throughput dose response assay to identify agonists of the human trace amine associated receptor 1 (TAAR1).; format: functional
T1 sequence (Q96RJ0 whole entry): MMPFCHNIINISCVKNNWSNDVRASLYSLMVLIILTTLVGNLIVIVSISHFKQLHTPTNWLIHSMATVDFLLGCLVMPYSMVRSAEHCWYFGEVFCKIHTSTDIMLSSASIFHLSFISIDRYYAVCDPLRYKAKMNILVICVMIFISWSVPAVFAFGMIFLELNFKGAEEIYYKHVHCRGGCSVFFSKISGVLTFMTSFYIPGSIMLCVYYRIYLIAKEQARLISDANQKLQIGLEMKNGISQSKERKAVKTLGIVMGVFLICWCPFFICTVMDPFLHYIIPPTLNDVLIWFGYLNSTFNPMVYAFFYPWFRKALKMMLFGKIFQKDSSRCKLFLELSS

[6] = molecular target: T1, Trace amine-associated receptor 1; assay: Counterscreen for agonists of the human trace amine associated receptor 1 (hTAAR1): Fluorescence-based cell-based high throughput dose response assay to identify hTAAR1 agonist that also desensitize TAAR1 receptor response.; format: functional
[7] = cells; format: functional, cell-based; remark: listed apart in the source
[8] = molecular target: T2, RNA-binding protein pos-1 (Caenorhabditis elegans, UniProt G5EF15); assay: inhibitors of POS-1/mex-3 RNA binding, dose response, biochemical, fluorescence polarization (AID 1964);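 further: purified POS-1 fused to maltose binding protein made in E. coli; potency of compounds blocking POS-1 binding to fluorescent RNA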
T2 sequence (G5EF15 whole entry): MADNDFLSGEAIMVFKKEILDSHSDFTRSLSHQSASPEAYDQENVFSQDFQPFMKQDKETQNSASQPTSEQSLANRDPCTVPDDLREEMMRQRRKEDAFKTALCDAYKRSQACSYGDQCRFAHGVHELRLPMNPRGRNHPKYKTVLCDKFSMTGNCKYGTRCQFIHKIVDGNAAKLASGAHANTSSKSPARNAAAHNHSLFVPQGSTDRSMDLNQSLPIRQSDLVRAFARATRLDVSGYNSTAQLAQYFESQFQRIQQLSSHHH

[9] = tested on: BJ; assay: cytotoxicity toward BJ-TERT fibroblasts, dose response, cell-based, RAS-independent, luminescence (AID 1933); format: functional; conditions: Homo sapiens
[10] = molecular target: T3, Zinc finger protein mex-5 (Caenorhabditis elegans, UniProt Q9XUB2); assay: MEX-5/TCR-2 RNA interaction inhibitors, dose response, biochemical, C. elegans, fluorescence polarization (AID 1960)
T3 sequence (Q9XUB2 whole entry): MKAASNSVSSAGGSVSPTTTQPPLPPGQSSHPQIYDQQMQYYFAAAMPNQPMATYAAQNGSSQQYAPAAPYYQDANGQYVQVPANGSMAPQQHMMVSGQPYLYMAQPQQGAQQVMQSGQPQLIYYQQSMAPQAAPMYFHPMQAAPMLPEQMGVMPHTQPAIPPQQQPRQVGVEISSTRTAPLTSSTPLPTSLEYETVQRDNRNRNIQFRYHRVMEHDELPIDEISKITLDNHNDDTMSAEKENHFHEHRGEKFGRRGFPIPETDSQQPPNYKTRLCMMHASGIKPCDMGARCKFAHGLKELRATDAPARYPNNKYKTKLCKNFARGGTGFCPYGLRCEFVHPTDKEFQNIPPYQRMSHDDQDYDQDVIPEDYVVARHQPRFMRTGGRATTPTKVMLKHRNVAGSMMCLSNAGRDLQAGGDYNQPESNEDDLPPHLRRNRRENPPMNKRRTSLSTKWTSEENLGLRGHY

[11] = tested on: BJ; assay: cells; format: functional, cell-based; conditions: Homo sapiens
[12] = tested on: BJ; assay: cytotoxicity toward BJ-TERT-LT-ST fibroblasts, dose response, cell-based, RAS-independent, luminescence (AID 1935); format: functional; conditions: Homo sapiens;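 further: BJ fibroblasts immortalized with TERT plus LT and ST oncogenes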
[13] = cytotoxicity toward DRD oncogenic fibroblasts, dose response, cell-based, non-viral oncogenic, luminescence (AID 1934); format: functional; conditions: Homo sapiens
[14] = tested on: BJ; assay: cytotoxicity toward Ras-transformed BJeLR fibroblasts, dose response, cell-based, alamar blue fluorescence, cherrypicked samples (AID 2631); format: functional; conditions: Homo sapiens;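 further: confirmatory dose-response assay in RAS-dependent BJ fibroblasts engineered with TERT, LT and ST, with cytotoxicity read by fluorescence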
[15] = molecular target: T4, Cytochrome P450 3A4 (Homo sapiens, UniProt P08684);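 further: CYP3A4 tested as one member of a cytochrome P450 panel screen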
[16] = molecular target: Cytochrome P450 2D6 (Homo sapiens, UniProt P10635);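 further: CYP2D6 member of a cytochrome P450 panel assay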
[17] = tested on: HEK293; assay: inhibitors of LMP1-driven NF-kB reporter, dose response, cell-based, HEK293, luciferase, cherry-pick (AID 588343); format: functional; conditions: Homo sapiens
[18] = molecular target: T5, Polyadenylate-binding protein 1 (Homo sapiens, UniProt P11940); assay: PABP1 MLLE–PAM2 interaction inhibitors, dose response, miRNA deadenylation inhibitor project, biochemical, fluorescence polarization, Cy5-PAM2 peptide, secondary (AID 602260); format: functional; conditions: read-out: IC50_Mean
[19] = molecular target: T5, Polyadenylate-binding protein 1; assay: PABP1 MLLE–PAM2 binding inhibitor potency, dose response, biochemical, fluorescence polarization, FITC-PAM2 peptide (AID 602259); format: functional; conditions: read-out: IC50_Mean
[20] = HepG2 cell cytotoxicity, dose response, cytotoxicity control, plate reader, cherry-pick, antagonist series (AID 743416); format: functional, cell-based
[21] = LGR2 antagonists, dose response, cell-based, HEK293, CRE-luciferase reporter, cherry pick, set 2 (AID 743343); format: functional;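 further: transfected cells were stimulated with diluted bursicon conditioned medium after compound addition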
[22] = MC4R antagonists, dose response, counter-screen for LGR2 antagonist project, cell-based, plate reader, cherry pick (AID 743444); format: functional;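 further: transfected HEK 293 cells stimulated with alpha-MSH peptide; potency of inhibitors of the alpha-MSH evoked signal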
[23] = molecular target: T4, Cytochrome P450 3A4; remark: listed apart in the source
[24] = molecular target: T6, Short transient receptor potential channel 4 (Mus musculus, UniProt Q9QUQ5); assay: mouse TRPC4 channel activators, dose response, cell-based, HEK293 TRPC4/mu-opioid, Fluo-4 calcium (AID 434937); format: functional
T6 sequence (Q9QUQ5 whole entry): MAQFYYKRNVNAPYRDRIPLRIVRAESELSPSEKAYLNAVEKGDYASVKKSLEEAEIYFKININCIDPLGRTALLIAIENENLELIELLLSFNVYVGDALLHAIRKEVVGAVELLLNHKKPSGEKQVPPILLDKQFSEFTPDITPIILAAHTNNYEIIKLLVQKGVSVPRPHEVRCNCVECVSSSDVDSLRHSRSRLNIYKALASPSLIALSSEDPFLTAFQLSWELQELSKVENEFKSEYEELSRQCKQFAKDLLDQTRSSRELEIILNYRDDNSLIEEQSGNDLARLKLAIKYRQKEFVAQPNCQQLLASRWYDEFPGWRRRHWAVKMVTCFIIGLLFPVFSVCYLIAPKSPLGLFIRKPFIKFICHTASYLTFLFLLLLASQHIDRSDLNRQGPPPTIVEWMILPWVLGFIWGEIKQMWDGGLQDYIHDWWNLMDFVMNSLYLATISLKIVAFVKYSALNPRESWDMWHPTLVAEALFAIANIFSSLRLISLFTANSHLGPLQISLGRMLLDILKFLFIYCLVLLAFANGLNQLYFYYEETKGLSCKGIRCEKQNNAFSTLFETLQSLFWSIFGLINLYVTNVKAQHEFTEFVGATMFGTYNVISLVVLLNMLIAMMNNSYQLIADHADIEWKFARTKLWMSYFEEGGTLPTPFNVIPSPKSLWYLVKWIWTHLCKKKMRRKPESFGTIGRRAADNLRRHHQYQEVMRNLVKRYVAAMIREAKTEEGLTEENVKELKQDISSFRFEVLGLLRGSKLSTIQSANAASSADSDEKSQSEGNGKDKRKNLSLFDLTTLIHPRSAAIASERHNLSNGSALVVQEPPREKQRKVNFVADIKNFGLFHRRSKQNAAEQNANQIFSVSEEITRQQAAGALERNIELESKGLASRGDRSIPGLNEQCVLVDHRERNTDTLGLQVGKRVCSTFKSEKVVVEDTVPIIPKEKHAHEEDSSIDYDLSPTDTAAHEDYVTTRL

Cytochrome P450 2D6, sequence (P10635 whole entry): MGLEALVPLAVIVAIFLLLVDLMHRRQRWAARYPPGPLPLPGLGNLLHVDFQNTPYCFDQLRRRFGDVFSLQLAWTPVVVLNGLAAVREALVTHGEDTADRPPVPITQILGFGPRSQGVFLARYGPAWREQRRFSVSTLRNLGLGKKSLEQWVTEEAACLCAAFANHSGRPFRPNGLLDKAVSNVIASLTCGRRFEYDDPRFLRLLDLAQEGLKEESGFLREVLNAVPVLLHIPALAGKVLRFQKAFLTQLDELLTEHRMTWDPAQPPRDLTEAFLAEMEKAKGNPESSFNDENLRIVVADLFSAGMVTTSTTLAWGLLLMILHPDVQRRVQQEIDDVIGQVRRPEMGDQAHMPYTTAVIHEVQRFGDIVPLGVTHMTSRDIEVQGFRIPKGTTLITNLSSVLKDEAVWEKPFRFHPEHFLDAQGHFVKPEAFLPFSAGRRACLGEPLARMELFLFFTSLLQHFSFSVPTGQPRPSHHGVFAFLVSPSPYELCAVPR
T4 sequence (P08684 whole entry): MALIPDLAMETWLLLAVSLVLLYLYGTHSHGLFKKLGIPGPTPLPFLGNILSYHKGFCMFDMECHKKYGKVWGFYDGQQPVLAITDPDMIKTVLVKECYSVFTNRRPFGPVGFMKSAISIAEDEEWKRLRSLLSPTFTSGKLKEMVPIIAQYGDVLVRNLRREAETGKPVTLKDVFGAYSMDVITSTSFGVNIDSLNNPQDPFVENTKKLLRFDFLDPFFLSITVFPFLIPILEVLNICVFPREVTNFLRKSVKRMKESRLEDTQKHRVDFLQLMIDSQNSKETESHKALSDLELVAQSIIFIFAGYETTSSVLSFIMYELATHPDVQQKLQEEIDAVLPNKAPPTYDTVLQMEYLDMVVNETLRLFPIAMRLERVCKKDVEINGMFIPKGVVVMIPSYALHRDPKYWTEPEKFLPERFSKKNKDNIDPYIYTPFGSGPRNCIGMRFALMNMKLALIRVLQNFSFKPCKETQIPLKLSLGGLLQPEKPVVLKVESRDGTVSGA
T5 sequence (P11940 whole entry): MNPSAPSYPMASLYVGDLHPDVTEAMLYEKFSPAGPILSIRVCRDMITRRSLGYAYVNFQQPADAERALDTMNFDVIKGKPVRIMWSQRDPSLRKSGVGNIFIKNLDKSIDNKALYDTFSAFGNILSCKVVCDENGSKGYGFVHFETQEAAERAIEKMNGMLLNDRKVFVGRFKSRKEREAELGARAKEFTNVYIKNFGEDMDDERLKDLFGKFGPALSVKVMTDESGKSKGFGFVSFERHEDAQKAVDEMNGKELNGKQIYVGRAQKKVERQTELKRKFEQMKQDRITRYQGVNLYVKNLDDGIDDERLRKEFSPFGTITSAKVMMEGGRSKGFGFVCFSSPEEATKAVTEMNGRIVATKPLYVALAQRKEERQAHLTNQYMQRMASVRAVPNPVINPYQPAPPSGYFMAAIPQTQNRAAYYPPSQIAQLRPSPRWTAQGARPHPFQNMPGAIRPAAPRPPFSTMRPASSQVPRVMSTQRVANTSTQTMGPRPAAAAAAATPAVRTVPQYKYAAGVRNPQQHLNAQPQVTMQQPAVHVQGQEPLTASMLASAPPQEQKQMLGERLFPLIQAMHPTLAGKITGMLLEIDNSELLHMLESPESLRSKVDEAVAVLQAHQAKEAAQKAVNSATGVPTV
Luciferin 4-monooxygenase, sequence (P08659 whole entry): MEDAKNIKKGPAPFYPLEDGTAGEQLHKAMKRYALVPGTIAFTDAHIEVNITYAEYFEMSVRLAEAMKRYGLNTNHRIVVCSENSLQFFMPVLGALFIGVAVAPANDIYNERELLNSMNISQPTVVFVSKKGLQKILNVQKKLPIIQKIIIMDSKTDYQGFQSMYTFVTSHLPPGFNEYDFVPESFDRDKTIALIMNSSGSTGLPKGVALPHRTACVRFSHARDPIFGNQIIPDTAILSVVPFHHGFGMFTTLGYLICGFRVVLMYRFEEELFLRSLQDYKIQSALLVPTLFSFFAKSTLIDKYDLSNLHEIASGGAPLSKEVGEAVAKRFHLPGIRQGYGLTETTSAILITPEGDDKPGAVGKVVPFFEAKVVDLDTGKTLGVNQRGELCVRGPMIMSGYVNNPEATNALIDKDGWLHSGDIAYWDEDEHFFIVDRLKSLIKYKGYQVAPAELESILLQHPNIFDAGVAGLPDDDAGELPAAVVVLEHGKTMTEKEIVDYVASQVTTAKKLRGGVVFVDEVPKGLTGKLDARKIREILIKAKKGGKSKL

Structure (SMILES): Nc1nc(Nc2cccc(F)c2)nc2ccccc12
- EC50 [1]: 853 nM (active)
- EC50 [2]: 7.18 µM (active)
- AC50 [3]: 4.73 µM (active)
- IC50 [4]: > 29.9 µM (inactive)
- EC50 [5]: 364 nM (active)
- IC50 [6]: 1.65 µM (active)
- EC50 [7]: > 29.9 µM (inactive)

Structure (SMILES): COc1ccc(N2C(=O)/C(=C/c3ccc(C)o3)C(=O)NC2=S)cc1
- EC50 [8]: > 300 µM (not active)
- EC50 [9]: > 150 µM (not active)
- EC50 [10]: > 300 µM (not active)
- EC50 [11]: 17 µM (active)
- EC50 [12]: > 75 µM (inconclusive)
- EC50 [13]: 15.9 µM (active)
- EC50 [14]: > 133 µM (inactive)

Structure (SMILES): CO[C@@H]1COC(=O)[C@@H](C)NC(=O)C/C=C\[C@@H](C)[C@H](NS(=O)(=O)c2ccc(C)cc2)COC(=O)[C@H](C)NC(=O)C/C=C\[C@H]1C
- AC50 [15]: 5.01 µM (inconclusive)
- AC50 [16]: inconclusive

Structure (SMILES): O=c1oc2c(-c3cccc(F)c3)cc(O)cc2s1
- AC50 [3]: 3.74 µM (active)

Structure (SMILES): O=C(CN1C(=O)c2ccccc2S1(=O)=O)Nc1ncc(Cl)cc1Cl
- AC50 [17]: 3.85 µM (active)
- IC50 [18]: > 66 µM (inactive)
- IC50 [19]: 27.3 µM (inactive)
- AC50 [20]: > 52 µM (inactive)
- AC50 [21]: 8.67 µM (active)
- AC50 [22]: 9.06 µM (active)

Structure (SMILES): CC(C)=NOC[C@@H](O)COCc1ccco1
- AC50 [16]: inconclusive

Structure (SMILES): O=[N+]([O-])c1ccc(CSc2ncnc3c2ncn3[C@@H]2O[C@@H](CO)[C@@H](O)[C@H]2O)cc1
- AC50 [23]: inconclusive

Structure (SMILES): Clc1ccc(OCCNCCc2ccccc2)cc1
- EC50 [24]: 4.73 µM (active)
- IC50 [4]: > 29.9 µM (inactive)
- EC50 [5]: 3810 nM (active)
- IC50 [6]: 9.59 µM (active)
- EC50 [7]: 21.9 µM (inactive)
